Experimental data: US20080269343A1, “GALENIC FORMULATIONS OF ORGANIC COMPOUNDS” (priority 2004, published 2008)
Read-outs that look alike come from different tables or passages of the source.

Assay: Single-dose 300 mg pharmacokinetic study in healthy and type 2 diabetic subjects (Example 4)
Assay type: in vivo, human
Conditions: single oral dose 300 mg; for AUC(0-t): read-out: AUC0-96
Experimental: An open label, non-randomized, single center, and parallel group single dose study in healthy and type 2 diabetic subjects was carried out. Two parallel groups, one group of 30 healthy, and one group of 30 type 2 diabetic patients, (age, weight and race matched) were enrolled, and all subjects completed the study in each group. Each subject participated in a 21-day screening period, a baseline period (Day −1), one day treatment period (Day 1) and a study completion evaluation 96 hours after the treatment.
Once eligibility had been confirmed each subject received a single oral dose of 300 mg of aliskiren (dosage form 3) on Day 1 with 96 hour sampling of pharmacokinetic (PK) parameters. Subjects were admitted to the study site at least 12 hours prior to the dosing and were confined to the clinic for at least 48 hours post-dose and were advised to come back for the rest of the PK samples collection. Subjects were to undergo a study completion evaluation on 96 hours post-dose prior to discharge from the study site.
Type 2 diabetic patients had been diagnosed with type 2 diabetes at least 1 year prior to screening, and were otherwise in good health. Healthy subjects were selected to match type 2 diabetes patients with regard to age (±5 yr) and weight (±10 kg).
Blood samples were collected to determine the pharmacokinetics following a single oral dose of 300 mg of aliskiren. Plasma concentrations of aliskiren were used to determine the pharmacokinetic parameters using non-compartmental methods, and the data are summarized in FIG. 4, and Tables 2 and 3.

[1] = Max, type 2 diabetic patients n = 30
[2] = Min, type 2 diabetic patients n = 30
[3] = human, plasma, po, 300 mg, Geometric Mean, healthy subjects n = 30
[4] = human, plasma, po, 300 mg, Geometric Mean, type 2 diabetic patients n = 30
[5] = human, plasma, po, 300 mg, Median, healthy subjects n = 30
[6] = human, plasma, po, 300 mg, Median, type 2 diabetic patients n = 30
[7] = human, plasma, po, 300 mg, arithmetic mean, healthy subjects n = 30
[8] = human, plasma, po, 300 mg, arithmetic mean, type 2 diabetic patients n = 30

COCCCOc1cc(C[C@@H](C[C@H](N)[C@@H](O)C[C@H](C(=O)NCC(C)(C)C(N)=O)C(C)C)C(C)C)ccc1OC [aliskiren, 2(S),4(S),5(S),7(S)—N-(3-amino-2,2-dimethyl-3-oxopropyl)-2,7-di(1-methylethyl)-4-hydroxy-5-amino-8-[4-methoxy-3-(3-methoxy-propoxy)phenyl]-octanamide]
AUC0-96 (Max, healthy subjects n = 30): 4546 ng·h/mL
AUC0-∞ (Max, healthy subjects n = 30): 5015 ng·h/mL
Cmax (Max, healthy subjects n = 30): 979 ng/mL
Tmax (Max, healthy subjects n = 30): 6.00 h
AUC0-96 [1]: 5662 ng·h/mL
AUC0-∞ [1]: 6171 ng·h/mL
Cmax [1]: 1580 ng/mL
AUC0-96 (Min, healthy subjects n = 30): 425 ng·h/mL
AUC0-∞ (Min, healthy subjects n = 30): 482 ng·h/mL
Cmax (Min, healthy subjects n = 30): 66 ng/mL
Tmax (Min, healthy subjects n = 30): 0.25 h
AUC0-96 [2]: 431 ng·h/mL
AUC0-∞ [2]: 465 ng·h/mL
Cmax [2]: 80 ng/mL
Tmax [2]: 0.25 h
AUC(0-inf) [3]: 1500 ng·h/mL
AUC(0-t) [3]: 1380 ng·h/mL
Cmax (human, plasma, po, 300 mg, Geometric Mean, healthy subjects n = 30, read-out: Cmax): 283 ng/mL
Tmax (human, plasma, po, 300 mg, Geometric Mean, healthy subjects n = 30, read-out: tmax): 1.32 h
AUC(0-inf) [4]: 1740 ng·h/mL
AUC(0-t) [4]: 1590 ng·h/mL
Cmax (human, plasma, po, 300 mg, Geometric Mean, type 2 diabetic patients n = 30, read-out: Cmax): 322 ng/mL
Tmax (human, plasma, po, 300 mg, Geometric Mean, type 2 diabetic patients n = 30, read-out: tmax): 1.22 h
AUC(0-inf) [5]: 1340 ng·h/mL
AUC(0-t) [5]: 1260 ng·h/mL
Cmax (human, plasma, po, 300 mg, Median, healthy subjects n = 30, read-out: Cmax): 278 ng/mL
Tmax (human, plasma, po, 300 mg, Median, healthy subjects n = 30, read-out: tmax): 1.25 h
AUC(0-inf) [6]: 1900 ng·h/mL
AUC(0-t) [6]: 1610 ng·h/mL
Cmax (human, plasma, po, 300 mg, Median, type 2 diabetic patients n = 30, read-out: Cmax): 328 ng/mL
Tmax (human, plasma, po, 300 mg, Median, type 2 diabetic patients n = 30, read-out: tmax): 1 h
AUC(0-inf) [7]: 1780 ng·h/mL
AUC(0-t) [7]: 1640 ng·h/mL
Cmax (human, plasma, po, 300 mg, arithmetic mean, healthy subjects n = 30, read-out: Cmax): 348 ng/mL
Tmax (human, plasma, po, 300 mg, arithmetic mean, healthy subjects n = 30, read-out: tmax): 1.97 h
AUC(0-inf) [8]: 2040 ng·h/mL
AUC(0-t) [8]: 1860 ng·h/mL
Cmax (human, plasma, po, 300 mg, arithmetic mean, type 2 diabetic patients n = 30, read-out: Cmax): 394 ng/mL
Tmax (human, plasma, po, 300 mg, arithmetic mean, type 2 diabetic patients n = 30, read-out: tmax): 1.62 h
